Experimental findings from patent US7994318B2, “Coumarin derivatives useful as TNFα inhibitors” (Chugai Seiyaku Kabushiki Kaisha, priority 2000, dated 2011) are described below.

For the first assay, the system named is TNFα. As to the kind of experiment: In vitro assay: TNFα ELISA of supernatants of LPS-stimulated human PBMC. Type of assay: cell-based. The conditions noted are these: Homo sapiens, PBMC, human PBMC pretreated with drug 60 min, stimulated with LPS (E. coli O55:B5) 100 ng/mL, overnight culture, TNFα in supernatant by ELISA; read-out: 50% Inhibition of TNFα level (IC50). How it is done:
Enzyme-linked immunosorbent assays (ELISA) for TNFα can be performed in a conventional manner (Blood, 75, 40-47 (1990)). Human PBMC are isolated from heparinized venous blood obtained from healthy volunteers by Ficoll-Hypaque density centrifugation. The cells are cultured in RPMI1640 medium supplemented with 5% heat-inactivated fetal calf serum and antibiotics. PBMC (5×10E5 cells/mL) in 0.2 mL aliquot are pretreated with drugs in DMSO for 60 min at 37° C. in 96 well round-bottomed tissue culture plates. Thereafter, PBMC in the presence or absence of compound are stimulated with 1 mg/mL LPS from E. coli O55:B5 at a final concentration of 100 ng/mL. After overnight culture, the supernatants are harvested and assayed immediately for TNFα levels from each well. The concentration of TNFα in the supernatant is determined by human TNFα ELISA Kit according to the manufacture's directions.
Active compounds are characterized by the concentration of the compound that caused 50% inhibition of TNFα level (IC50).
As for `CC(=O)Nc1cccc(Cc2c(C)c3cc(Cl)c(OC(=O)N(C)C)cc3oc2=O)c1` [Example 12, dimethyl carbamic acid 2-oxo-2H-3-(m-acetylamidobenzyl)-4-methyl-6-chloro1-benzopyran-7-yl ester], the IC50 was less than 600 nM.

Consider `Cc1c(Cc2ccncc2)c(=O)oc2cc(OC(=O)N(C)C)c(Cl)cc12` [Example 11, dimethyl carbamic acid 2-oxo-2H-3-(p-pyridinylmethyl)-4-methyl-6-chloro-1-benzopyran-7-yl ester], for which the IC50 is 130 nM.

As for `CCOC(=O)CC(=O)Nc1cccc(Cc2c(C)c3ccc(Oc4ncccn4)cc3oc2=O)c1` [Example 19, 2-oxo-2H-3-(m-ethoxycarbonyl-acetylaminobenzyl)-4-methyl-7-(pyrimidin-2-yloxyl)-1-benzopyrane], the IC50 was less than 600 nM.

Consider `Cc1c(Cc2ccccc2)c(=O)oc2cc(Oc3nccs3)ccc12` [Example 21, 2-oxo-3-benzyl-4-methyl-7-(thiazol-2-yloxyl)-2H-1-benzopyrane], for which the IC50 came to 9100 nM.

For the compound `CCCc1c(Cc2ccc(F)cc2)c(=O)oc2cc(OC(=O)N(C)C)ccc12` [Example 7, dimethyl carbamic acid 2-oxo-2H-3-(4-fluorobenzyl)-4-n-propyl-1-benzopyran-7-yl ester], the IC50 was determined as 1170 nM.

`Cc1c(Cc2ccccc2)c(=O)oc2cc(SC(=O)N(C)C)ccc12` [Example 13, dimethyl thiocarbamic acid S-2-oxo-2H-3-benzyl-4-methyl-1-benzopyran-7-yl ester]: the IC50 was found to be 680 nM.

On to `CN(C)C(=O)Oc1ccc2c(CCO)c(Cc3ccccc3)c(=O)oc2c1` [Example 4, dimethyl carbamic acid 2-oxo-2H-3-benzyl-4-(2-hydroxylethyl)-1-benzopyran-7-yl ester], for which the IC50 is 2100 nM.

`CN(C)C(=O)Oc1ccc2c(CC(O)c3ccccn3)c(Cc3ccccc3)c(=O)oc2c1` (stereo not shown) [Example 5, dimethyl carbamic acid 2-oxo-2H-3-benzyl-4-(2-(2-pyridyl)-2-hydroxylethyl)-1-benzopyran-7-yl ester]: the IC50 was found to be 19300 nM.

Staying with this assay, now noted: human PBMC pretreated with drug 60 min, stimulated with LPS (E. coli O55:B5) 100 ng/mL, overnight culture, TNFα in supernatant by ELISA; listed as 14-25; read-out: 50% Inhibition of TNFα level (IC50).
`CC(=O)Nc1cccc(Cc2c(C)c3cc(Cl)c(OC(=O)N(C)C)cc3oc2=O)c1` [Example 12, dimethyl carbamic acid 2-oxo-2H-3-(m-acetylamidobenzyl)-4-methyl-6-chloro1-benzopyran-7-yl ester]: the IC50 was determined as 310 nM.

Staying with this assay, now noted: human PBMC pretreated with drug 60 min, stimulated with LPS (E. coli O55:B5) 100 ng/mL, overnight culture, TNFα in supernatant by ELISA; read-out: 50% Inhibition of TNFα level (IC50).
For the compound `CCc1c(Cc2cccc(N)c2)c(=O)oc2cc(OC(=O)N(C)C)ccc12` [Example 14-78], the IC50 amounted to 1300 nM.

With `COc1ccccc1Cc1c(C)c2ccc(OC(=O)N(C)C)cc2oc1=O` [Example 14-44], the IC50 was 7500 nM.

In the case of `CCc1c(Cc2cccc(N)c2)c(=O)oc2cc(Oc3ncccn3)cc(F)c12` [Example 20-59], the IC50 was determined as 5900 nM.

As to `CCc1c(Cc2ccccc2)c(=O)oc2cc(OC(=O)N(C)C)c(Cl)cc12` [Example 14-74], the concentration for half-maximal inhibition (IC50) is 240 nM.

Take `Cc1c(Cc2cccc([N+](=O)[O-])c2)c(=O)oc2cc(OC(=O)N(C)C)cc(F)c12` [Example 14-5]: the IC50 amounted to 3700 nM.

Turning to `CCOC(=O)CC(=O)Nc1cccc(Cc2c(C)c3c(F)cc(OC(=O)N(C)C)cc3oc2=O)c1` [Example 14-8], the IC50 turned out to be 140 nM.

Turning to `CCOC(=O)CC(=O)Nc1cccc(Cc2c(C)c3c(F)cc(Oc4ncccn4)cc3oc2=O)c1` [Example 20-40], the IC50 was less than 600 nM.

On to `Cc1c(Cc2ccccc2)c(=O)oc2cc(C(O)c3ccsc3)ccc12` (stereo not shown) [Example 26-22], for which the IC50 turned out to be 8200 nM.

As for `Cc1c(Cc2ccncc2)c(=O)oc2cc(OC(=O)N(C)C)ccc12` [Example 14-32], the IC50 stood at 1300 nM.

For the compound `Cc1c(Cc2ccccc2)c(=O)oc2cc(OC(=O)N(C)C)c(Br)cc12` [Example 14-15], the IC50 is 60 nM.

In the case of `Cc1c(Cc2cccnc2)c(=O)oc2cc(OC(=O)N(C)C)c(Cl)cc12` [Example 14-35], the IC50 turned out to be 450 nM.

Turning to `Cc1c(Cc2ccccc2[N+](=O)[O-])c(=O)oc2cc(OC(=O)N(C)C)c(Cl)cc12` [Example 14-21], the IC50 worked out at 3000 nM.

For `Cc1c(Cc2ccncc2)c(=O)oc2cc(Oc3ncccn3)c(Cl)cc12` [Example 20-13], the IC50 came to 7500 nM.

On to `Cc1c(Cc2cccc(N)c2)c(=O)oc2cc(Oc3ncccn3)ccc12` [Example 20-19], for which the IC50 stood at 7200 nM.

Consider `Cc1c(Cc2cccc([N+](=O)[O-])c2)c(=O)oc2cc(OC(=O)N(C)C)c(Cl)cc12` [Example 14-23], for which the IC50 was less than 600 nM.

As to `Cc1c(Cc2ccccc2)c(=O)oc2cc(Oc3nccs3)ccc12` [Example 21, 2-oxo-3-benzyl-4-methyl-7-(thiazol-2-yloxyl)-2H-1-benzopyrane], the IC50 was determined as 10500 nM.

Consider `Cc1c(Cc2cccc([N+](=O)[O-])c2)c(=O)oc2cc(Oc3nccs3)cc(F)c12` [Example 22-3], for which the IC50 turned out to be 10100 nM.

In the case of `CCc1c(Cc2cccc(NC(C)=O)c2)c(=O)oc2cc(OC(=O)N(C)C)ccc12` [Example 14-79], the IC50 was determined as 1600 nM.

Turning to `CCOC(=O)CC(=O)Nc1cccc(Cc2c(C)c3ccc(Oc4nccs4)cc3oc2=O)c1` [Example 22-6], the IC50 was 250 nM.

As to `CCc1c(Cc2cccc(N)c2)c(=O)oc2cc(Oc3nccs3)ccc12` [Example 22-7], the IC50 worked out at 4200 nM.

For `Cc1c(Cc2ccccc2N)c(=O)oc2cc(OC(=O)N(C)C)ccc12` [Example 14-64], the IC50 is 2100 nM.

`CCS(=O)(=O)Nc1cccc(Cc2c(C)c3cc(Cl)c(Oc4ncccn4)cc3oc2=O)c1` [Example 20-44]: the IC50 was 300 nM.

For `Cc1c(Cc2cccc(N)c2)c(=O)oc2cc(OC(=O)N(C)C)cc(F)c12` [Example 14-6], the IC50 stood at 1600 nM.

For `CCc1c(Cc2cccc(N)c2)c(=O)oc2cc(Oc3ncccn3)c(Cl)cc12` [Example 20-56], the IC50 stood at 7800 nM.

As to `CCCS(=O)(=O)Nc1cccc(Cc2c(C)c3cc(Cl)c(Oc4ncccn4)cc3oc2=O)c1` [Example 20-46], the IC50 is 960 nM.
